ChEMBL document CHEMBL1201862, “PubChem BioAssay data set” (2004)
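Following 48 hours of exposure in 96-well plates, responses at five concentrations were used to interpolate endpoints linearly. Abbreviation: GI50, concentration required for 50% inhibition of growth.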 Calls of active or inactive are those of the source. Rule as the data show it: active = GI50 up to about 1.1 µM and inactive = higher.

Tests used:
Assay in all cases: growth of human tumour cells (NCI), 48 h
A498 = tested on: A498
A549 = tested on: A549
CCRF-CEM = tested on: CCRF-CEM
DU-145 = tested on: DU-145
HOP-92 = tested on: HOP-92
IGROV-1 = tested on: IGROV-1
MDA-MB-435 = tested on: MDA-MB-435
Malme-3M = tested on: Malme-3M
NCI-H23 = tested on: NCI-H23
NCI-H460 = tested on: NCI-H460
OVCAR-4 = tested on: OVCAR-4
PC-3 = tested on: PC-3
SF-295 = tested on: SF-295
SF-539 = tested on: SF-539
SK-MEL-28 = tested on: SK-MEL-28
SN12C = tested on: SN12C
SNB-75 = tested on: SNB-75
SR = tested on: SR
SW-620 = tested on: SW-620
UACC-62 = tested on: UACC-62

CN(C)P(=O)(Oc1ccc(CC(NC(=O)OCc2ccccc2)C(=O)OCc2ccccc2)cc1)N(C)C (stereo not given)
GI50 (A498): 19400 nM (inactive)
GI50 (A549): 19200 nM (inactive)
GI50 (CCRF-CEM): 2430 nM (inactive)
GI50 (DU-145): 15700 nM (inactive)
GI50 (HOP-92): 17800 nM (inactive)
GI50 (IGROV-1): 17200 nM (inactive)
GI50 (MDA-MB-435): 12200 nM (inactive)
GI50 (Malme-3M): 17300 nM (inactive)
GI50 (NCI-H23): 14100 nM (inactive)
GI50 (NCI-H460): 21000 nM (inactive)
GI50 (OVCAR-4): 20700 nM (inactive)
GI50 (PC-3): 15200 nM (inactive)
GI50 (SF-295): 18200 nM (inactive)
GI50 (SF-539): 22300 nM (inactive)
GI50 (SK-MEL-28): 16800 nM (inactive)
GI50 (SN12C): 15100 nM (inactive)
GI50 (SNB-75): 17200 nM (inactive)
GI50 (SR): 4560 nM (inactive)
GI50 (SW-620): 18200 nM (inactive)
GI50 (UACC-62): 15200 nM (inactive)

CC(=O)O[C@H]1C(=O)[C@@]2(C)[C@H]([C@H](OC(=O)c3cccc(C(F)(F)F)c3)[C@]3(O)C[C@H](OC(=O)[C@H](O)[C@@H](NC(=O)c4ccccc4)c4ccccc4)C(C)=C1C3(C)C)[C@]1(OC(C)=O)CO[C@@H]1C[C@@H]2O
GI50 (A498): 131 nM (active)
GI50 (A549): 2.61 nM (active)
GI50 (CCRF-CEM): < 2.5 nM (active)
GI50 (DU-145): 8.57 nM (active)
GI50 (HOP-92): 520 nM (active)
GI50 (IGROV-1): 7.03 nM (active)
GI50 (MDA-MB-435): < 2.5 nM (active)
GI50 (Malme-3M): 3.18 nM (active)
GI50 (NCI-H23): 11.5 nM (active)
GI50 (NCI-H460): 4.69 nM (active)
GI50 (OVCAR-4): 336 nM (active)
GI50 (PC-3): < 2.5 nM (active)
GI50 (SF-295): 38.7 nM (active)
GI50 (SF-539): < 2.5 nM (active)
GI50 (SK-MEL-28): 1890 nM (inactive)
GI50 (SN12C): 6.03 nM (active)
GI50 (SNB-75): 4.34 nM (active)
GI50 (SR): < 2.5 nM (active)
GI50 (SW-620): < 2.5 nM (active)
GI50 (UACC-62): 5.26 nM (active)
